# Reference: patent US20070105836A1, “Prodrugs of muscarinic agonists and methods of treatment of neuropsychiatric disorders” (priority 2005, published 2007)
# Assay: Conversion of prodrugs to NDMC in vivo (plasma and brain levels of NDMC by LC-MS/MS after oral dosing)
# Description: Male, Sprauge-Dawly rats (200-225 grams, Harlan, San Diego, Calif.) implanted with jugular vein cannulae served as experimental subjects. Rats were fasted for approximately 16 hours and then dosed orally with one of several test compounds. All test compounds were administered at a fixed dose of 10 mg/kg (freebase) in a volume of 1 mL/kg. Venous blood samples were collected 0, 30, 60 and 120 min following test compound administration. Samples were placed into heparinized tubes and centrifuged to obtain plasma. Additionally, whole brains were harvested at the 120 min time point in order to determine brain levels of test compounds. Plasma samples, brains and any remaining dosing solutions were stored at −80° C. until analyzed.
# The thawed plasma samples were processed by protein precipitation using acetonitrile. Following centrifugation the supernatant was diluted appropriately and transferred to the analysis deep well plate for analysis. […]
# Calibration samples and samples were analyzed by LC-MS/MS using positive electrospray ionization. […]
# Samples were analyzed using multiple reaction monitoring (MRM). […]
# 4.0.1 and the area under the curve (AUC0-120) of NDMC was calculated. In vivo conversion to NDMC was calculated from the dose-normalized ratio of AUC0-120 of NDMC following administration of pro-drug and NDMC, respectively.
smiles,measurement,setting,value
"Clc1ccc2c(c1)N=C(N1CCNCC1)c1ccccc1N2 [NDMC, N-desmethylclozapine]",Plasma AUC(0-120 min) of NDMC,"male Sprague-Dawley rats, fasted, oral 10 mg/kg (freebase) of compound administered, plasma 0-120 min",1298 nmol·h/L
same,Mean brain concentration of NDMC at 120 min (SD),"rats, oral 10 mg/kg, whole brain at 120 min, n = 3",255 (56) nmol/(kg)
